Some test systems named below: OVCAR-8 ovarian; SNB-19 CNS; OVCAR-4 ovarian; COLO 205 colon; UACC-62 melanoma; TK-10 renal; SK-MEL-2 melanoma; HCT-116 colon; NCI-H226 lung.
Common to all, as to test: NCI-60 cell line screen, 48 h

Structures are written as SMILES. Values joined by “and” are separate entries in the source; they are usually repeats but may differ in a detail not shown here. Identical values can stand only once.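 Assay format: 96-well plates, 48-hour exposure. GI50 marks 50% less growth. TGI: total growth inhibition.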

As to `O=c1c2ccccc2c(/C=N\NC2=NCCN2)c2oc3ccccc3n12`, the GI50 was 19.4 µM in the assay on OVCAR-8 ovarian; 22.5 µM with SNB-19 CNS; 23.7 µM in the assay with OVCAR-4 ovarian; 18.8 µM in the assay on COLO 205 colon; 16.3 µM in the assay on UACC-62 melanoma; 16.3 µM in the assay on TK-10 renal. Also, the GI50 is 21.8 µM with SK-MEL-2 melanoma, 19.1 µM with HCT-116 colon and 19.2 µM in the assay on NCI-H226 lung. Besides, the TGI in the assay with OVCAR-8 ovarian was 45.6 µM; with SNB-19 CNS it was 51.3 µM; in the assay on OVCAR-4 ovarian it was 65.7 µM; in the assay with COLO 205 colon it was 38.7 µM; in the assay with UACC-62 melanoma it was 33.4 µM; in the assay with TK-10 renal it was 31.3 µM. For the same compound, the TGI with SK-MEL-2 melanoma is 87.6 µM; in the assay on HCT-116 colon, > 100 µM; in the assay on NCI-H226 lung it was 48.2 µM.

As to `COC(=O)c1ccc(/C=C(\c2ccc([N+](=O)[O-])o2)S(=O)(=O)c2ccc(NC(C)=O)cc2)o1`, the TGI came to 11.8 µM in the assay with OVCAR-8 ovarian; 32.2 µM in the assay with SNB-19 CNS; 4.67 µM in the assay with OVCAR-4 ovarian; 7.56 µM in the assay on COLO 205 colon; 4.31 µM in the assay with UACC-62 melanoma; 16.2 µM with TK-10 renal. Also, the TGI in the assay on SK-MEL-2 melanoma is 39.2 µM; in the assay with HCT-116 colon, 8.39 µM; with NCI-H226 lung, 7.98 µM.

With `CC(C)[C@@](O)(c1ccc2cc(OC(F)F)c(OC(F)F)cc2c1)c1cn[nH]n1`, the GI50 is 21.9 µM in the assay with OVCAR-8 ovarian; 20.8 µM in the assay with SNB-19 CNS; 17.1 µM with OVCAR-4 ovarian; 17.2 µM with COLO 205 colon; 15.1 µM in the assay on UACC-62 melanoma; 14.9 µM in the assay on TK-10 renal. Moreover, the GI50 with SK-MEL-2 melanoma is 17.4 µM; with HCT-116 colon it was 17.2 µM; in the assay with NCI-H226 lung it was 22.3 µM. In addition, the TGI with OVCAR-8 ovarian is 53.6 µM; in the assay on SNB-19 CNS it was 51.2 µM; in the assay on OVCAR-4 ovarian it was 86 µM; with COLO 205 colon, 35.1 µM; with UACC-62 melanoma, 31 µM; in the assay on TK-10 renal it was 32.9 µM. For the same compound, the TGI with SK-MEL-2 melanoma was determined as 34.3 µM; with HCT-116 colon, 32 µM; in the assay with NCI-H226 lung it was 58.2 µM.

For `N#CC1=C(N)NC(=S)NC12Nc1ccccc1S2` (stereo not given), the GI50 in the assay on OVCAR-8 ovarian was 39.6 µM; in the assay with SNB-19 CNS it was 28.1 µM; with OVCAR-4 ovarian, 81.4 µM; with COLO 205 colon, 24.8 µM; in the assay with UACC-62 melanoma, 19.7 µM; in the assay on TK-10 renal, 41.5 µM. The GI50 in the assay with SK-MEL-2 melanoma was 44.2 µM; in the assay with HCT-116 colon it was > 100 µM; in the assay on NCI-H226 lung it was 31.2 µM. In addition, the TGI in the assay on OVCAR-8 ovarian is > 100 µM; in the assay on SNB-19 CNS it was > 100 µM; in the assay with OVCAR-4 ovarian it was > 100 µM; with COLO 205 colon, 82.6 µM; with UACC-62 melanoma it was 55.8 µM; in the assay on TK-10 renal, > 100 µM. For the same compound, the TGI in the assay with SK-MEL-2 melanoma, in the assay with HCT-116 colon and with NCI-H226 lung was > 100 µM each time.

For the compound `COc1cc(CNCCN2C(=O)c3ccc4c5c(ccc(c35)C2=O)C(=O)N(CCNCc2cc(OC)c(OC)c(OC)c2)C4=O)cc(OC)c1OC`, the GI50 in the assay with SNB-19 CNS was 0.827 µM; with OVCAR-4 ovarian it was 0.122 µM; in the assay on COLO 205 colon it was 0.177 µM; in the assay on UACC-62 melanoma, 0.552 µM; in the assay on TK-10 renal, 0.78 µM; in the assay with SK-MEL-2 melanoma, 0.586 µM. In addition, the GI50 with HCT-116 colon was 0.136 µM. The TGI is 1.84 µM with SNB-19 CNS; 0.398 µM in the assay on OVCAR-4 ovarian; 0.673 µM in the assay with COLO 205 colon; 1.36 µM in the assay on UACC-62 melanoma; 1.51 µM in the assay with TK-10 renal; 1.29 µM in the assay with SK-MEL-2 melanoma. In the assay on HCT-116 colon, this compound yielded a TGI of 0.428 µM.

For the compound `O=C1C(=C([O-])c2ccccc2)C(=O)c2ccccc21.O=C1C(=C([O-])c2ccccc2)C(=O)c2ccccc21.[Mn+2]`, the GI50 is > 100 µM with OVCAR-8 ovarian; 76.7 µM with SNB-19 CNS; > 100 µM in the assay on OVCAR-4 ovarian; 5.48 µM in the assay on UACC-62 melanoma; > 100 µM in the assay on TK-10 renal; > 100 µM in the assay with SK-MEL-2 melanoma. Further, the GI50 in the assay with NCI-H226 lung is 32 µM. In addition, the TGI with OVCAR-8 ovarian, with SNB-19 CNS, in the assay on OVCAR-4 ovarian, in the assay with UACC-62 melanoma, with TK-10 renal and with SK-MEL-2 melanoma was > 100 µM in each case. The TGI in the assay on NCI-H226 lung is > 100 µM.

Take `Oc1ccc2c3c1OC1c4[nH]ncc4C[C@H]4[C@@H](C2)N(CC2CC2)CC[C@]314` (stereo not given in full): the TGI in the assay on OVCAR-8 ovarian, in the assay with SNB-19 CNS, in the assay with OVCAR-4 ovarian, in the assay on COLO 205 colon, in the assay on UACC-62 melanoma and with TK-10 renal was > 100 µM throughout. Besides, the TGI with SK-MEL-2 melanoma, with HCT-116 colon and in the assay on NCI-H226 lung was > 100 µM throughout.

Regarding `COc1cccc(-c2cc(=O)c3cc(N4CCOCC4)ccc3[nH]2)c1`, the GI50 in the assay on OVCAR-8 ovarian was 0.0303 µM; with COLO 205 colon, 0.0353 µM; with UACC-62 melanoma, 0.041 µM; in the assay with TK-10 renal it was 4.84 µM; in the assay on SK-MEL-2 melanoma it was 0.0937 µM; in the assay on HCT-116 colon, 0.0371 µM. Besides, the GI50 in the assay with NCI-H226 lung is 0.0806 µM. Further, the TGI is 0.337 µM and 0.152 µM in the assay with OVCAR-8 ovarian; 0.0463 µM and 0.234 µM with COLO 205 colon; > 100 µM with TK-10 renal.
